{"source": "the NIST ThermoML archive (doi:10.1016/j.jct.2010.08.020)", "key": {"[1]": {"test": "molar enthalpy of vaporization or sublimation", "details": "298.15 K; Crystal; drop (calvet) calorimetry"}, "[2]": {"details": "Crystal; for vapor or sublimation pressure: Calculated from knudsen effusion weight loss"}}, "note": "“And” between values parts separate entries of the source, which are not always exact repeats. Identical values can stand only once. Numbers after ± are expanded uncertainties."}
{"smiles": "Oc1ccc(Br)cc1Br", "note": "[2,4-dibromophenol]", "values": [{"measurement": "molar enthalpy", "setting": "[1]", "result": "19.4 ± 0.717", "unit": "kcal/mol"}]}
{"smiles": "Oc1cc(Br)cc(Br)c1", "note": "[3,5-dibromophenol]", "values": [{"measurement": "molar enthalpy of sublimation", "setting": "[2]; 298.15 K, drop (calvet) calorimetry", "result": "22.5 ± 0.86", "unit": "kcal/mol"}, {"measurement": "vapor or sublimation pressure", "setting": "[2]; 299.19 K", "result": "0.00012 ± 6e-06 kPa and 0.000118 ± 6e-06 kPa and 0.000117 ± 6e-06 kPa"}, {"measurement": "vapor or sublimation pressure", "setting": "[2]; 301.19 K", "result": "0.000157 ± 8e-06 kPa and 0.000146 ± 7e-06 kPa and 0.000151 ± 8e-06 kPa"}, {"measurement": "vapor or sublimation pressure", "setting": "[2]; 303.2 K", "result": "0.000196 ± 1e-05 kPa and 0.000184 ± 9e-06 kPa and 0.000189 ± 9e-06 kPa"}, {"measurement": "vapor or sublimation pressure", "setting": "[2]; 305.11 K", "result": "0.000244 ± 1.2e-05 kPa and 0.000242 ± 1.2e-05 kPa and 0.000241 ± 1.2e-05 kPa"}, {"measurement": "vapor or sublimation pressure", "setting": "[2]; 307.18 K", "result": "0.000325 ± 1.6e-05 kPa and 0.000315 ± 1.6e-05 kPa and 0.000317 ± 1.6e-05 kPa"}, {"measurement": "vapor or sublimation pressure", "setting": "[2]; 309.11 K", "result": "0.000407 ± 2e-05 kPa and 0.000414 ± 2.1e-05 kPa and 0.000389 ± 1.9e-05 kPa"}, {"measurement": "vapor or sublimation pressure", "setting": "[2]; 311.13 K", "result": "0.000502 ± 2.5e-05 kPa and 0.000501 ± 2.5e-05 kPa and 0.000493 ± 2.5e-05 kPa"}, {"measurement": "vapor or sublimation pressure", "setting": "[2]; 313.19 K", "result": "0.000663 ± 3.3e-05 kPa and 0.000629 ± 3.2e-05 kPa and 0.00065 ± 3.3e-05 kPa"}, {"measurement": "vapor or sublimation pressure", "setting": "[2]; 315.21 K", "result": "0.000813 ± 4.1e-05 kPa and 0.000838 ± 4.2e-05 kPa and 0.000801 ± 4e-05 kPa"}, {"measurement": "vapor or sublimation pressure", "setting": "[2]; 317.12 K", "result": "0.001011 ± 0.0001 kPa and 0.001023 ± 0.0001 kPa and 0.000993 ± 5e-05 kPa"}]}
{"smiles": "Oc1c(Br)cccc1Br", "note": "[2,6-dibromophenol]", "values": [{"measurement": "molar enthalpy", "setting": "[1]", "result": "19.9 ± 0.717", "unit": "kcal/mol"}]}
